Reference: paper PMC10480161, “Identification of potent and selective N-myristoyltransferase inhibitors of Plasmodium vivax liver stage hypnozoites and schizonts” (Nature Communications, 2023)
Values joined by “and” are separate entries in the source; they are usually repeats but may differ in a detail not shown here. Identical values can stand only once.

Columns and labels:
[1] = test system: P. falciparum NF54; experiment: P. falciparum blood stage assay (SYBR Green); type: cell-based, Plasmodium falciparum; conditions: 72 h; for P. falciparum blood-stage development (parasite DNA level fluorescence): untreated = 129; for IC50: Plasmodium falciparum, NF54, ring-stage parasites, relative IC50
Procedure: To assess whether any of the PvNMTis developed here could qualify as TCP-1 candidates, we assessed the effect of each compound on blood-stage P. falciparum parasites, as there is currently no well-established in vitro platform for screening P. vivax blood-stage parasites. Synchronized P. falciparum NF54 ring-stage parasites were treated for 72 h with each compound at various concentrations, ranging from 0.625 µM to 10 µM, and parasite DNA replication was measured using a fluorescent DNA binding dye (SYBR Green).
Sorbitol-synchronized P. falciparum NF54 ring-stage parasites were cultured at a parasitemia of 0.5% and hematocrit of 1.5% in a 96-well microtiter plate. Parasites were treated with each NMT inhibitor compound at 0.625, 1.25, 2.5, 5, or 10 µM for 72 h. Direct lysis of the blood cells to release the parasite DNA was performed by adding 100 μl of LBS buffer containing SYBR green I DNA binding dye to each well. […] ICEstimator regression analysis (http://www.antimalarial-icestimator.net/) was used to obtain relative IC50 values for each compound.

[2] = test system: HepG2 cells; experiment: HepG2 cytotoxicity assay (Live/Dead staining); conditions: replicates
Procedure: (§1) Therefore, we assessed cytotoxicity in the human hepatoma HepG2 cell line. We required a PvNMT to HsNMT SI > 20 for further screening. HepG2 cells were exposed to the compounds at concentrations ranging from 1 to 20 µM for […], and toxicity was assessed via live-dead staining.
(§2) The viability of the HepG2 cell line following exposure to the compounds was determined by a Live/Dead cell assay kit (Invitrogen). Briefly, cells were added to a 96-well plate at a concentration of 5000 cells per well, excluding the exterior wells. Cells were exposed to the compounds at different concentrations ranging from 1 to 20 µM. Cells were washed every 24 h and supplemented with fresh doses of compounds. At 72 h post-treatment, 1 µM calcein-AM and 1 µM ethidium homodimer were added to the wells and incubated for 10 min at 37 °C. After washing with PBS, the cells were visualized with fluorescent microscopy (Keyence BZ-X700).

[3] = HepG2 cytotoxicity assay (Live/Dead staining); conditions: human, HepG2 cells
Procedure: as §1, §2

Structure (SMILES) | P. falciparum blood-stage development (parasite DNA level fluorescence) ([1]; 0.625 uM) | P. falciparum blood-stage development (parasite DNA level fluorescence) ([1]; 1.25 uM) | P. falciparum blood-stage development (parasite DNA level fluorescence) ([1]; 2.5 uM) | P. falciparum blood-stage development (parasite DNA level fluorescence) ([1]; 5 uM) | P. falciparum blood-stage development (parasite DNA level fluorescence) ([1]; 10 uM) | IC50 [1] [nM] | Percentage of live HepG2 cells compared with diluent controls ([2]; 1 μM) | Percentage of live HepG2 cells compared with diluent controls ([2]; 2.5 μM) | Percentage of live HepG2 cells compared with diluent controls ([2]; 5 μM) | Percentage of live HepG2 cells compared with diluent controls ([2]; 10 μM) | Percentage of live HepG2 cells compared with diluent controls ([2]; 20 μM) | IC50 at 48 h [3] [nM]
Cc1n[nH]c(C)c1CCOc1cc(F)ccc1-c1cccc(OCCN(C)C)c1 [Compound 26i] | 109.6 | 112.9 | 111.2 | 93.25 | 85.5 | 400 | 96.6401% and 97.1078% | 90.0917% | 95.2109% and 86.8435% | 86.5317% and 90.6634% | 79.0479% and 88.1213% | > 20000
c1cncc(CCOc2ccc3ccccc3c2-c2ccnc(N3CCNCC3)c2)c1 [Compound 30c] | 126.9 | 124 | 114.3 | 101.4 | 93.99 | 680 | 102.591% and 103.526% | 103.812% and 93.9636% | 93.7037% and 93.0801% | 92.5344% and 91.9887% | 79.2818% and 86.3846% | > 20000
